Here are results for 2 compounds from article PMC9851200, “Multiparameter phenotypic screening for endogenous TFEB and TFE3 translocation identifies novel chemical series modulating lysosome function” (Autophagy, 2022).

Holding throughout (format): binding
The target of assay [1] is kinases (KINOMEscan panel) (Homo sapiens, UniProt P00519, H396P). The conditions noted are these: NEW KINOMEscan.
Assay [2] deals with kinases (KINOMEscan panel) (Homo sapiens, UniProt P06213). Particulars: kinase INSR; NEW KINOMEscan.
Sequence of kinases (KINOMEscan panel) (Homo sapiens, UniProt P06213) (P06213 28-1382): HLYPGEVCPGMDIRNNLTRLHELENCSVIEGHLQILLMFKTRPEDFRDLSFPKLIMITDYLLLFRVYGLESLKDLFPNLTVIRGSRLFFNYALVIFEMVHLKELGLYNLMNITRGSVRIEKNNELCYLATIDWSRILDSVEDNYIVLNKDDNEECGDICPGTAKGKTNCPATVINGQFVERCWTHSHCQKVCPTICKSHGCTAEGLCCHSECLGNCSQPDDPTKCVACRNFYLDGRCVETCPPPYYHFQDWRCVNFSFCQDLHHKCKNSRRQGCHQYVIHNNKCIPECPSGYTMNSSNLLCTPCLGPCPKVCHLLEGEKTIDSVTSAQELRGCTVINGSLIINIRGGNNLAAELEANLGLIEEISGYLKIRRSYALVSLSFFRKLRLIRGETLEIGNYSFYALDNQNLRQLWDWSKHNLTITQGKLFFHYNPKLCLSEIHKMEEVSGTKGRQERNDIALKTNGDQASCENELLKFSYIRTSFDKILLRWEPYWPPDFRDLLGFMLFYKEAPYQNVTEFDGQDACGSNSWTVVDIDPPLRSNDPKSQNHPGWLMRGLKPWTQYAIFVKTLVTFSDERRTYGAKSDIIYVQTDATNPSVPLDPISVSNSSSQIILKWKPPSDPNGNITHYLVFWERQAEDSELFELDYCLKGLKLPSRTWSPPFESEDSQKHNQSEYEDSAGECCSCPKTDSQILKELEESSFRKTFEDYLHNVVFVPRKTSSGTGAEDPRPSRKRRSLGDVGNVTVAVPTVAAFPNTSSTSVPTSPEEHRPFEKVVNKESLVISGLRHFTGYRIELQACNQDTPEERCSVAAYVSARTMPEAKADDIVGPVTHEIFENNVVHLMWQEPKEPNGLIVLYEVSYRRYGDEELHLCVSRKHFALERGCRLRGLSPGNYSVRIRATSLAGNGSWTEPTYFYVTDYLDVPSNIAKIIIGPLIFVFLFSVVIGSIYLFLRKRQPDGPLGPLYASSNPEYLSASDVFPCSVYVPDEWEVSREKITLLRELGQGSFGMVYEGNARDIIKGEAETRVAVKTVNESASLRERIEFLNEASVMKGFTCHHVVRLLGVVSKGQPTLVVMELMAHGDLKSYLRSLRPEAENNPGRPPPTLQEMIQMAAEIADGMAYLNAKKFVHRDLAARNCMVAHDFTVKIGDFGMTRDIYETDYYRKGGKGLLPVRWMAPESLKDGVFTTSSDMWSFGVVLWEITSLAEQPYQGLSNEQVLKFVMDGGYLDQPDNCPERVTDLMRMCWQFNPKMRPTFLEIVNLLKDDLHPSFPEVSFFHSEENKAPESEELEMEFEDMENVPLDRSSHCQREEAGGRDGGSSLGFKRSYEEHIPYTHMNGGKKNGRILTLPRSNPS
Assay [3] has as its target kinases (KINOMEscan panel) (Homo sapiens, UniProt P36888, K663Q). The conditions noted are these: kinase FLT3(K663Q); NEW KINOMEscan.
Assay [4] has as its target kinases (KINOMEscan panel) (Homo sapiens, UniProt Q14004).
Assay [5] concerns the target T1, kinases (KINOMEscan panel) (Homo sapiens, UniProt Q7L7X3).
T1 sequence (Q7L7X3 1-1001): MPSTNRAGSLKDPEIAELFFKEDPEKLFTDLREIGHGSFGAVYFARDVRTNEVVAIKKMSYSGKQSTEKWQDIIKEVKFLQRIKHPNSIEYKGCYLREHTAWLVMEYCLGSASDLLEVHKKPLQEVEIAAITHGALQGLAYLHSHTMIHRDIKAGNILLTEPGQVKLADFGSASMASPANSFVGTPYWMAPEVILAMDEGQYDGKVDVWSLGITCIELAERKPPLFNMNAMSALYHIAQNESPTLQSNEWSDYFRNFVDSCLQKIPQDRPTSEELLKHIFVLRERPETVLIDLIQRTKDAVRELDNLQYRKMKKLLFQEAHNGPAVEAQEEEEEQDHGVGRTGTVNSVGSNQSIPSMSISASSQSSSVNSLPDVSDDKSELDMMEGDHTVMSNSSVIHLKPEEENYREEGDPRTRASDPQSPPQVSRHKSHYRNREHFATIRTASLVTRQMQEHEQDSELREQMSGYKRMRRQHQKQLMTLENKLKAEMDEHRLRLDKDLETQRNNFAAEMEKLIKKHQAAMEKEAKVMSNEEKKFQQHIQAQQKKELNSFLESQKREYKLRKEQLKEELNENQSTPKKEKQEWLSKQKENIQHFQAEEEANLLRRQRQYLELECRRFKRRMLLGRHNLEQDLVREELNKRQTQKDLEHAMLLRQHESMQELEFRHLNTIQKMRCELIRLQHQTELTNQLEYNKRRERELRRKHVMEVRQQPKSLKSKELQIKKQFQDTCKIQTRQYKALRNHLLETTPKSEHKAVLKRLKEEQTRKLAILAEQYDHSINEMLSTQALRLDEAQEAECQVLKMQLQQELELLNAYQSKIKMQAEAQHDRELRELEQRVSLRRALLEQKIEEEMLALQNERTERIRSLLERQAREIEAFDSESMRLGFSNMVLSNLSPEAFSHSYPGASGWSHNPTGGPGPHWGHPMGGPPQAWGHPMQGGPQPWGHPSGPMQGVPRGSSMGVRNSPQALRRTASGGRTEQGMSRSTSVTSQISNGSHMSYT
The conditions noted are these: kinase TAOK1; NEW KINOMEscan.

The target of assay [6] is T2, kinases (KINOMEscan panel) (Homo sapiens, UniProt Q8IVH8).
T2 sequence (Q8IVH8 1-894): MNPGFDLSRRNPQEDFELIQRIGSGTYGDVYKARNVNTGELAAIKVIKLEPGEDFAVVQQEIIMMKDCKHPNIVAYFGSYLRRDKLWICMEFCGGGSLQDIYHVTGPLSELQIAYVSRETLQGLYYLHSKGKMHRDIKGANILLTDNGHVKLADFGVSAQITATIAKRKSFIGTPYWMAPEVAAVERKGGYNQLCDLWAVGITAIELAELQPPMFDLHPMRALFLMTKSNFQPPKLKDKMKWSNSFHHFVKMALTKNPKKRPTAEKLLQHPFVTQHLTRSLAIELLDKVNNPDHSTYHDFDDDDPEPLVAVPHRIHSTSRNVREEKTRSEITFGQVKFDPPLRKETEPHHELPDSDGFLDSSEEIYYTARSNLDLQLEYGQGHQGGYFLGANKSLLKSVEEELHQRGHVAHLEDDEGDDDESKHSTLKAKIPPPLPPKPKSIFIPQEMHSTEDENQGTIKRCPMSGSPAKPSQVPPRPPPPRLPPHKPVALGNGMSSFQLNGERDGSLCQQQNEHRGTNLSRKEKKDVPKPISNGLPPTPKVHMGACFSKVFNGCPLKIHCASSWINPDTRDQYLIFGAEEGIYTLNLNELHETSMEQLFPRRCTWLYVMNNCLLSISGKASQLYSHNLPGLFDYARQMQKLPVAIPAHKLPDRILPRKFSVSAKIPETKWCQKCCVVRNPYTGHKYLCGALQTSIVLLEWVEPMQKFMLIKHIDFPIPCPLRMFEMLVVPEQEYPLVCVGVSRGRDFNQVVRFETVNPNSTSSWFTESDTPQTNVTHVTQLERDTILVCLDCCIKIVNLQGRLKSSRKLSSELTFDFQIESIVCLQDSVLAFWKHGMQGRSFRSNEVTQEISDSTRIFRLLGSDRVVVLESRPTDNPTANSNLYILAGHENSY
Particulars: NEW KINOMEscan.

For assay [7], the target named is kinases (KINOMEscan panel) (Homo sapiens, UniProt Q8IVW4). Particulars: kinase CDKL3; NEW KINOMEscan.
Sequence of kinases (KINOMEscan panel) (Homo sapiens, UniProt Q8IVW4) (Q8IVW4 whole entry): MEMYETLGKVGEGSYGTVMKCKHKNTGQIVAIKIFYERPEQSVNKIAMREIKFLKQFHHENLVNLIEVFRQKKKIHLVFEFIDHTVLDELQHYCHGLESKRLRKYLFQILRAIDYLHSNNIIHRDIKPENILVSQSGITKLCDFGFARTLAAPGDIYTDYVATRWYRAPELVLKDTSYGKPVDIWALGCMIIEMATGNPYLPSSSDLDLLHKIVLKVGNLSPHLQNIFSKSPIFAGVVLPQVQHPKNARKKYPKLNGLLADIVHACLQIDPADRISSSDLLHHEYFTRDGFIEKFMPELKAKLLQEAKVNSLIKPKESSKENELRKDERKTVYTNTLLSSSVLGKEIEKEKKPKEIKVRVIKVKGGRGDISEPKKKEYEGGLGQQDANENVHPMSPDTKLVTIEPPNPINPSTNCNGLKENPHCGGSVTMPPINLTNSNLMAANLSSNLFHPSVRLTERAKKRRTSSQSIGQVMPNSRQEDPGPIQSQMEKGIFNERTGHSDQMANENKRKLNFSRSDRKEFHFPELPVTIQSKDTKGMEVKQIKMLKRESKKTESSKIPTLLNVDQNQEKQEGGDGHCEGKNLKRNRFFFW
Assay [8] deals with kinases (KINOMEscan panel) (Homo sapiens, UniProt Q96GD4). The conditions noted are these: kinase AURKB; NEW KINOMEscan.
Sequence of kinases (KINOMEscan panel) (Homo sapiens, UniProt Q96GD4) (Q96GD4 whole entry): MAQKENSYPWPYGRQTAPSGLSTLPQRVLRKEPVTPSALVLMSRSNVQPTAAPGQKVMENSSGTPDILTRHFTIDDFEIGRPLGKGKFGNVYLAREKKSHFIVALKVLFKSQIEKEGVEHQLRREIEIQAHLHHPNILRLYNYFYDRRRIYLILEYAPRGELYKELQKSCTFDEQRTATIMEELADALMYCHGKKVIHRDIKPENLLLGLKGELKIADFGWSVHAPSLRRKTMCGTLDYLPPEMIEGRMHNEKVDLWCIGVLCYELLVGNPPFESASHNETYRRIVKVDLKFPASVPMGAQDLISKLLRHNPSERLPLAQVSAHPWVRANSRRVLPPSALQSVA
Assay [9] addresses kinases (KINOMEscan panel) (Homo sapiens, UniProt Q9BYT3). Particulars: kinase STK33; NEW KINOMEscan.

Sequence of kinases (KINOMEscan panel) (Homo sapiens, UniProt Q9BYT3) (Q9BYT3 whole entry): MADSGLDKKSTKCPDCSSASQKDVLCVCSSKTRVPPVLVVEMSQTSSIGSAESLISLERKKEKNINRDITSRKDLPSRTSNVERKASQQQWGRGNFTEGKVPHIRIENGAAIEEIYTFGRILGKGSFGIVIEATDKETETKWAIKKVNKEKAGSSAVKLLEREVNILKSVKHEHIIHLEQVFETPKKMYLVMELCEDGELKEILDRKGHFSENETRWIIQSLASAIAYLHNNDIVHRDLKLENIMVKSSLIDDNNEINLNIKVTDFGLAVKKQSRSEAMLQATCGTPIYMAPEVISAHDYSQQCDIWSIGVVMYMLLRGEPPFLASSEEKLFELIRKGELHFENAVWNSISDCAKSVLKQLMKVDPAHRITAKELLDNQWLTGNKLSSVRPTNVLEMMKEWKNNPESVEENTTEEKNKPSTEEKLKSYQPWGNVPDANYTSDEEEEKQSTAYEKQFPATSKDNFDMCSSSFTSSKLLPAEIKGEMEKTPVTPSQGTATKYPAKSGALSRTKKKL
Sequence of kinases (KINOMEscan panel) (Homo sapiens, UniProt Q14004) (Q14004 whole entry): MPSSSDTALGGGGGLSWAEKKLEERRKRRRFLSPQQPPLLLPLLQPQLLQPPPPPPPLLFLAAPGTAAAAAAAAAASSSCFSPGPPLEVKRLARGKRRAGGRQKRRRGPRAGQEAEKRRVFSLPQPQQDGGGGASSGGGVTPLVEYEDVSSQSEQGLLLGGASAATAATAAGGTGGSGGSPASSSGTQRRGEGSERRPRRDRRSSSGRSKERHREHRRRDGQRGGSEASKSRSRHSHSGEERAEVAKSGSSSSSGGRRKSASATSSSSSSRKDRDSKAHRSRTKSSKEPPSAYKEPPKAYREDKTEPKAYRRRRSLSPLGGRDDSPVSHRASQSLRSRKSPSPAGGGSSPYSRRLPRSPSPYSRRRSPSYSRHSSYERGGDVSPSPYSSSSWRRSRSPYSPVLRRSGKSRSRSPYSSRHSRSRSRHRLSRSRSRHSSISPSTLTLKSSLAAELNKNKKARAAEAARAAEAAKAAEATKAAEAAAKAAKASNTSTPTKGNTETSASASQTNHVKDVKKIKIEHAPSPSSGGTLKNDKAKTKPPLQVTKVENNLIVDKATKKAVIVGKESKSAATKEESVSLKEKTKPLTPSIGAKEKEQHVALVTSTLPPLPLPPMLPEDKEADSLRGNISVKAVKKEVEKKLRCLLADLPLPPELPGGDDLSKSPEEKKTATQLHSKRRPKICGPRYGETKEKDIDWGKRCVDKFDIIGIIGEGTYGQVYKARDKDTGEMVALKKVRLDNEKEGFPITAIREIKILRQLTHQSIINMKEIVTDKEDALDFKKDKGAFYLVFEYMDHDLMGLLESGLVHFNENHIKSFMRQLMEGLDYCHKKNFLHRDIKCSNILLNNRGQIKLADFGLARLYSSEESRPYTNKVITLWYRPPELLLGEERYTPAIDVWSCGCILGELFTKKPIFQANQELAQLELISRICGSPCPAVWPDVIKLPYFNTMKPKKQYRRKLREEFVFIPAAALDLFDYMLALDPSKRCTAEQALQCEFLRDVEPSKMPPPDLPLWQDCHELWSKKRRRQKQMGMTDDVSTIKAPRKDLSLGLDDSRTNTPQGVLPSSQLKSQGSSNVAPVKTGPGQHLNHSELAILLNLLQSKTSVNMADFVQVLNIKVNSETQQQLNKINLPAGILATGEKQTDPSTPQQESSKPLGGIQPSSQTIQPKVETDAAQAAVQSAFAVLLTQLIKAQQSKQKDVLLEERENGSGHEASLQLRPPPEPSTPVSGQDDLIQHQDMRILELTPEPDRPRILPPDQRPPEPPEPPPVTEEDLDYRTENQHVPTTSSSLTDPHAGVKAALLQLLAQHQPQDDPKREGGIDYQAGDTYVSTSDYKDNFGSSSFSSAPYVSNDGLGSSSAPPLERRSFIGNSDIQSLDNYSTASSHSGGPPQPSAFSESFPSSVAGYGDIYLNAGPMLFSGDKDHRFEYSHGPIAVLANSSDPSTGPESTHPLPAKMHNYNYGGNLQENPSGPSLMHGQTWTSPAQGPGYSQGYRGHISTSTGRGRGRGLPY

Turning to `Cc1cccc(-c2nc(Nc3ccc4nn(C)cc4c3)c3ccccc3n2)n1` [NK167], in assay [1], the “KINOMEscan ABL1(H396P)-nonphosphorylated” value came out at 4 and the “KINOMEscan ABL1(H396P)-phosphorylated” value came out at 0. The “KINOMEscan INSR” value in assay [2] came out at 0. The “KINOMEscan FLT3(K663Q)” value in assay [3] stood at 0. Moreover, the “KINOMEscan CDK13” value in [4] is on record as 8. Further, in [5], the “KINOMEscan TAOK1” value is on record as 0. The “KINOMEscan MAP4K3” value in assay [6] amounted to 20. Also, in [7], the “KINOMEscan CDKL3” value is reported as 12. Also, the “KINOMEscan AURKB” value in assay [8] was 0. For the same compound, the “KINOMEscan STK33” value in assay [9] is 0.
Take `Cc1cccc(-c2nc(N(C)c3ccc4ncsc4c3)c3ccccc3n2)n1` [NK-161]: in [1], the “KINOMEscan ABL1(H396P)-nonphosphorylated” value amounted to 0 and the “KINOMEscan ABL1(H396P)-phosphorylated” value worked out at 0. Further, the “KINOMEscan INSR” value in assay [2] amounted to 2. Further, the “KINOMEscan FLT3(K663Q)” value in [3] was 0. Besides, in assay [4], the “KINOMEscan CDK13” value is reported as 6. In addition, the “KINOMEscan TAOK1” value in assay [5] came to 1. For the same compound, the “KINOMEscan MAP4K3” value in assay [6] was 22. Also, the “KINOMEscan CDKL3” value in [7] is given as 0. Moreover, in assay [8], the “KINOMEscan AURKB” value is given as 0. Moreover, the “KINOMEscan STK33” value in assay [9] is on record as 0.
